Measured values reported in patent publication US9918972B2, “Treatment of leukemia with artemisinin derivatives and combinations with other antineoplastic agents” (UNIVERSITY OF MARYLAND, BALTIMORE, priority 2014, dated 2018).
pIC50: −log10 of the molar value.

Tests used:
KOPN8 = test: Kinase inhibitor drug combination screen (MTS, Bliss-independence analysis)
Source text: (§2) Hits were ranked by the observed inhibition over the Bliss independence prediction.
(§3) Combinations with positive values for this Bliss difference were considered synergistic, values near zero, additive, and negative values, antagonistic.

RCH-ACV = test: as above
MOLM14 and KOPN8 cells = test: Validation of ABT-199/ABT-737 + AS/ART-838 combinations, alamarBlue, Chou-Talalay; format: cell-based, human; details: MOLM14 and KOPN8, AS or ART-838 at IC50, 48 h
Experimental: FIGS. 10A-10B. Validation of cytotoxicity of ABT-199/ABT-737+AS/ART-838 combinations by alamarBlue assay. […] Each experiment was performed in triplicate. All data points between 0.1-99.9% growth inhibition were analyzed using the methods of Chou and Talalay and combination indices (CIs) calculated. CIs were graphed against the fractional effect (FE; the fraction of cells inhibited at each concentration). CI<1 indicates synergy, CI=1, additivity, CI>1, antagonism.
(§1) MOLM14 or KOPN8 cells were seeded in 96-well plates as described above for alamarBlue assays. Cells were treated with a certain concentrations of AS, or ART-838 or DHA, in combination with a range of concentrations of ABT-199 or ABT-263 or ABT-737. AlamarBlue assays were performed as described above. Each set of drugs or drug combinations was tested in triplicate. Chou-Talalay drug combination analysis was performed as above.
Cytotoxicity of the individual drugs and combinations was assessed using alamarBlue fluorescence, a more sensitive indicator of cell metabolism (as a surrogate for cell number) than MTS.
Drug combination interactions were assessed using the methods of Chou-Talalay, a more robust measure of synergy than the Bliss independence model. The Chou-Talalay method, however, can only be used at drug effect levels from 0.1-99.9%. […]

MOLM14 = test: Kinase inhibitor drug combination screen (MTS, Bliss-independence analysis)
Source text: as §2, §3

MOLM14 cells [1] = test: Apoptosis (APC Annexin-V / 7-AAD, FACS); format: cell-based, human; details: MOLM14, ABT-199 plus AS or ART-838, 24 hrs
Experimental: FIG. 13. […] MOLM14 cells were treated with ABT-199 and/or AS (upper panel) or ART-838 (lower panel) for 24 hrs. Cells were stained with APC Annexin-V and 7-AAD and analyzed by fluorescence-activated cell sorting (FACS) to assess apoptotic cells. The early apoptotic population was defined as APC Annexin-V (+) and 7-AAD (−). The total apoptotic population was defined as APC Annexin-V (+). Each experiment was performed in triplicate. […].
Drug or vehicle-treated cells (1-5×10^5/sample) were washed with cold PBS, resuspended in Annexin-V binding buffer, co-stained with 5 μl each of APC Annexin-V and 7-AAD viability dye (all from BioLegend, San Diego, Calif.), and incubated for 15 minutes at room temperature in the dark then stored on ice until analysis (<30 minutes). Stained cells were analyzed using the FL3 and FL4 channels of an Accuri C6 flow cytometer. ˜10,000 non-debris cellular events were collected per sample and analyzed, as for cell cycle. The Annexin-V^−/7-AAD^− population was designated “viable,” the Annexin-V^+/7-AAD^− population was designated “early apoptotic,” and the Annexin-V^+/7-AAD^+ population was designated “dying/dead” [47].

MOLM14 cells [2] = test: Combinations of AS, ART-838 or DHA with BCL-2 inhibitors, alamarBlue, 48 h; format: cell-based, human
Experimental: FIGS. 11A-11C. Antileukemic efficacy of ABT-199, ABT-263 or ABT-737 combined with AS or ART-838. […] Each experiment was performed in triplicate.
FIG. 12. […] MOLM14 cells were treated with increasing concentrations of ABT-199, ABT-263 or ABT-737 without or with DHA (500 nM and 1 μM) for 48hrs. Then cytotoxicity was evaluated by alamarBlue assays. Each experiment was performed in triplicate.
as §1

[3] = test system: MOLM14, Kasumi-1, KOPN8 and RCH-ACV leukemia cell lines; test: Kinase inhibitor drug combination screen, summary over the four leukemia cell lines
Source text: as §2, §3

[4] = test system: MOLM14-luc AML xenografts; test: Subcutaneous MOLM14-luc xenograft growth in NSG mice (ARA with ART-838); format: in vivo; details: ARA 40 mg/kg/d i.p. plus ART-838 200 mg/kg/d p.o.
Experimental: FIG. 14. ART-838 enhanced in vivo efficacy of ARA against acute leukemia xenografts in NSG mice. NSG mice transplanted subcutaneously with luciferase labeled MOLM14 (MOLM14-luc) AML cells, were treated with vehicle, ARA (“Ara-C”), ART-838 or ART-838 plus ARA starting on day 17 after transplantation. Ara-C (40 mg/kg/d) was given i.p. on day 17, 18, 19, 20, 21 and 24. ART-838 (200 mg/kg/d) was given p.o. on day 17, 20 and 24. Mouse tumors were measured on the indicated days.
Highly immunodeficient NSG mice, obtained originally from Jackson Laboratory (Bar Harbor, Me.), were bred and housed in the UMSOM animal facilities, and handled in a laminar flow hood under aseptic conditions. All experiment procedures and animal care were in compliance with the NIH guidelines for the Care and Use of Laboratory Animals and approved by the UMSOM Institutional Animal Care and Use Committee. ART-838 were formulated in Tween 80:ethanol (7:3, v:v) and diluted 1:10 in filtered deionized water immediately before administration. […] Mice were monitored daily and euthanized when tumors reached an estimated mass of 2000 mg (using the formula: [length×width2]/2, assuming density=1 mg/mm3).
The anti-leukemic efficacy of ART-838 plus ARA was tested in NSG mice transplanted subcutaneously with luciferase labeled MOLM14 (MOLM14-luc) AML cells. […] Mouse tumors were measured with calipers on the indicated days.

MOLM14 cells [5] = test: ROS - mitochondrial superoxide (MitoSOX flow cytometry); format: cell-based, human; details: for effect on AS-induced superoxide generation: MOLM14, combined with AS, 2.25x IC50s, 16 h
Experimental: FIGS. 4A-4D. […] CIs were computed as described above. CI<1 indicates synergy, CI=1, additivity, CI>1, antagonism. […] Cells were then loaded with 5 μM MitoSox for 30 min, washed, and analyzed by flow cytometry for MitoSox fluorescence (indicating mitochondrial superoxide) in the FL2 channel. […] Error bars represent the SEM of three independent experiments.

KOPN8 cells = test: alamarBlue cytotoxicity assay, single-drug IC50, 48 h; format: cell-based; details: Homo sapiens, KOPN-8
Experimental: Cytotoxicity was assessed using alamarBlue assays (Life Technologies, Grand Island, N.Y.; used for IC50 determinations and all drug combinations except the drug combination screen (method described separately below)) or Trypan Blue dye exclusion (Life Technologies, Grand Island, N.Y.; used only for experiments using inhibitors that could interfere with alamarBlue assay performance (NAC, Tiron, DFO)).
Cell lines were seeded in 96-well tissue culture plates at 10^4 cells per well (myeloid leukemia lines) or 2×10^4 cells per well (lymphoid leukemia lines) in culture medium, followed by addition of drugs at the indicated concentrations. 2-4 wells per plate containing media-only were included for background subtraction. Peripheral wells were filled with sterile water to minimize the effects of evaporation.
MOLM14 cells were treated with each of these drugs, alone and in combination with ART-838 or AS at an equipotency ratio based on the IC50s for each drug (Table 1). In Table 1, KOPN8 and MOLM14 cell lines were treated with a range of concentrations of each drug for 48 h then cytotoxicity was measured via alamarBlue assay. Results were normalized to cells treated with vehicle (≦0.5% DMSO) alone. IC50s were calculated using CompuSyn software and represent the means of at least three experiments performed in triplicate. Addition of ART-838 or AS enhanced the cytotoxicity of all six tested drugs across a range of concentrations (FIG. 2). Drug interactions were typically most favorable (more additive/synergistic or less antagonistic) at higher doses.

[6] = test system: chemotherapy (doxorubicin, hydroxyurea, methotrexate, or vincristine)-resistant CEM (T-ALL) sub-lines; details: reference [27]; cited from earlier work
MOLM14 AML xenografts = test: Subcutaneous MOLM14 xenograft growth in NSG mice (SOR with AS); format: in vivo; details: SOR plus AS p.o.
Experimental: FIG. 15. AS enhanced in vivo efficacy of Sorafenib (SOR) against acute leukemia xenografts in NSG mice. […] Drug or vehicle were given p.o. on day 3-7, 17-21, and 31-35 when possible. Mouse tumors were measured on the indicated days.
The NSG mice were obtained, maintained and handled as described in the paragraph immediately above. AS was also formulated in Tween 80:ethanol (7:3, v:v) and diluted 1:10 in filtered deionized water immediately before administration. For the human AML xenograft model, 6-12-week-old male NSG mice (>20 g) were transplanted sc with MOLM14 cells on day 0 and drug-treated via oral gavage, as specified in legend. Mice were monitored daily and euthanized when tumors reached an estimated mass of 2000 mg as described in the paragraph immediately above.
Palpable tumors appeared about 2 weeks after transplantation.

MOLM14 cells [7] = test: alamarBlue cytotoxicity assay, single-drug IC50, 48 h; format: cell-based, human; details: Homo sapiens, MOLM-14; MOLM14, single drug, 48 h, alamarBlue
Experimental: Peripheral wells were filled with sterile water to minimize the effects of evaporation. […] Results were normalized to cells treated with vehicle (≦0.5% DMSO) alone. IC50s were calculated using CompuSyn software and represent the means of at least three experiments performed in triplicate.

**Q.** For `CC1(C)CCC(CN2CCN(c3ccc(C(=O)NS(=O)(=O)c4ccc(NCC5CCOCC5)c([N+](=O)[O-])c4)c(Oc4cnc5[nH]ccc5c4)c3)CC2)=C(c2ccc(Cl)cc2)C1` [ABT-199], which “fractional inhibition over Bliss prediction” value (KOPN8; KOPN8, Drug 2 = ART-838 at approximate IC50, 48 h) is on record?
**A.** KOPN8 (0.11),

**Q.** And the “fractional inhibition over Bliss prediction” value (KOPN8; KOPN8, Drug 2 = AS at approximate IC50, 48 h)?
**A.** KOPN8 (0.15),

**Q.** And the “fractional inhibition over Bliss prediction” value (RCH-ACV; Drug 2 = ART-838 at approximate IC50, 48 h)?
**A.** RCH-ACV (0.35)

**Q.** And the “fractional inhibition over Bliss prediction” value (RCH-ACV; Drug 2 = AS at approximate IC50, 48 h)?
**A.** RCH-ACV (0.16)

**Q.** And the “cytotoxic efficacy on addition of AS or ART-838” value (MOLM14 and KOPN8 cells)?
**A.** potently increased the efficacy

**Q.** And the “fractional inhibition over Bliss prediction” value (MOLM14; MOLM14, Drug 2 = ART-838 at approximate IC50, 48 h)?
**A.** MOLM14 (0.18),

**Q.** What about the “fractional inhibition over Bliss prediction” value (MOLM14; MOLM14, Drug 2 = AS at approximate IC50, 48 h) of the same molecule?
**A.** MOLM14 (0.20),

**Q.** And the induction of apoptosis (MOLM14 cells [1])?
**A.** cooperated to induce apoptosis

**Q.** And the “leukemia cell growth inhibition” value (MOLM14 cells [2]; MOLM14, 37 nM ABT-199 alone)?
**A.** did not inhibit

**Q.** And the growth inhibition (MOLM14 cells [2]; MOLM14, 37 nM ABT-199 together with ART-838 25 nM)?
**A.** 100%

**Q.** And the growth inhibition (MOLM14 cells [2]; MOLM14, 37 nM ABT-199 together with AS 825 nM)?
**A.** 100%

**Q.** And the “No. Cell Lines” value ([3]; cell lines synergistically inhibited (>10% over Bliss) by drug 1 combined with AS and/or ART-838)?
**A.** 3/4

**Q.** What about the “cell lines in which combination was synergistic” value ([3]; plus ART-838) of the same molecule?
**A.** 3/4

**Q.** And the “average inhibition over the Bliss prediction” value ([3]; plus ART-838, average over synergistic cell lines)?
**A.** 21%

**Q.** What about the “cell lines in which combination was synergistic” value ([3]; plus AS) of the same molecule?
**A.** 3/4

**Q.** And the “average inhibition over the Bliss independence prediction” value ([3]; plus AS, average over synergistic cell lines)?
**A.** 17%

**Q.** And the “synergy with AS or ART-838” value ([3]; screens in four human leukemia cell lines)?
**A.** Particularly strong synergy

**Q.** What does the source list for `Nc1ccn([C@@H]2O[C@H](CO)[C@@H](O)[C@@H]2O)c(=O)n1` [ARA, cytarabine]?
**A.** tumor growth (tumor size on day 24) [4]: inhibited tumor growth substantially more than did either drug alone; effect on AS-induced superoxide generation (MOLM14 cells [5]): further enhanced; pIC50 (KOPN8 cells): 7.14

**Q.** Which “efficacy against resistant sub-lines vs parental line” value [6] does the source give for `C[C@H]1[C@H](OC(=O)CCC(=O)O)O[C@@H]2O[C@@]3(C)CC[C@H]4[C@H](C)CC[C@@H]1[C@@]24OO3` [AS, artesunate] here?
**A.** as effective

**Q.** And the “mitochondrial superoxide (MitoSox MFI)” value (MOLM14 cells [5]; MOLM14, drug alone, 2.25x IC50, 16 h)?
**A.** increased

**Q.** With `CNC(=O)c1cc(Oc2ccc(NC(=O)Nc3ccc(Cl)c(C(F)(F)F)c3)cc2)ccn1` [SOR, sorafenib] as the molecule, how does the “tumor growth (tumor size on day 24)” value (MOLM14 AML xenografts) read?
**A.** inhibited tumor growth substantially more than did either drug alone

**Q.** And the pIC50 (MOLM14 cells [7])?
**A.** 8.40

**Q.** And the “effect on AS-induced superoxide generation” value (MOLM14 cells [5])?
**A.** reduced

**Q.** And the pIC50 (KOPN8 cells)?
**A.** 5.38
